Measured values reported in patent US7662778B2, “Histone deacetylase inhibitor and process for producing the same” (Riken, priority 2003, dated 2010).
Like-named read-outs stand apart in the source and are kept apart here. Values belong to the molecule of their own block, whether it stands above or below them. Where a SMILES comes first, the peptide text is derived from it. [ ]: non-standard residue; d: D form. The star is where a group is joined. Asu = N[C@@H](CCCCCC(=O)O)C(=O)O; NH(2-NH2-phenyl) = Nc1ccccc1N*; X1 = Oc1ccccc1N*; X3 = Sc1ccccc1N*

How the values were obtained:
human HDAC1 = target: T1, human HDAC1 (Homo sapiens, UniProt Q13547); experiment: HDAC inhibitory activity in vitro (coumarin-labeled acetylated histone peptide), HDAC1; type: biochemical
T1 construct: FLAG; made in house; host or cells: 293T cells, transient transfection; anti-FLAG immunoprecipitation and FLAG peptide elution

human HDAC4 = target: T2, human HDAC4 (Homo sapiens, UniProt P56524); experiment: HDAC inhibitory activity in vitro (coumarin-labeled acetylated histone peptide), HDAC4; type: biochemical
T2 construct: FLAG; made in house; host or cells: 293T cells, transient transfection; anti-FLAG immunoprecipitation and FLAG peptide elution

[1] = system: human wild-type p21 promoter; experiment: p21 promoter-inducing activity (luciferase) in MFLL-9 cells; type: cell-based
Procedure: The HDAC inhibitory activity in vivo was measured using p21 promoter-inducing activity as an index, as shown below. The MFLL-9 cells employed for the experiments stably maintained fusion genes of human wild-type p21 promoter and luciferase (Dr. B. Vogelstaein). Using phenol red-free DMEM medium comprising 10% FBS, cultivation was carried out in a steam-saturated incubator at 37° C. with 5% carbon dioxide. The MFLL-9 cells were plated at a density of 85,000 cells/well on a 96-well microtiter plate, each in 99 μl of the above-mentioned medium. These were then cultivated for six hours. One μl of test compound solution was added to each well, which was then cultured for another 18 hours.
The intensity of luminescence caused by the product of the enzyme reaction for intracellular luciferase expression was measured using Luc Lite (Packard BioScience Company).
HDAC inhibitory activity in an in vivo system was measured using p21 promoter induction as index. The experimental method followed that of Example 11.

mouse HDAC6 = target: T3, mouse HDAC6 (Mus musculus, UniProt Q9Z2V5); experiment: HDAC inhibitory activity in vitro (coumarin-labeled acetylated histone peptide), HDAC6; type: biochemical
T3 construct: HA; made in house; host or cells: 293T cells, transient transfection; anti-HA immunoprecipitation and HA peptide elution
T3 sequence (Q9Z2V5 1-1149): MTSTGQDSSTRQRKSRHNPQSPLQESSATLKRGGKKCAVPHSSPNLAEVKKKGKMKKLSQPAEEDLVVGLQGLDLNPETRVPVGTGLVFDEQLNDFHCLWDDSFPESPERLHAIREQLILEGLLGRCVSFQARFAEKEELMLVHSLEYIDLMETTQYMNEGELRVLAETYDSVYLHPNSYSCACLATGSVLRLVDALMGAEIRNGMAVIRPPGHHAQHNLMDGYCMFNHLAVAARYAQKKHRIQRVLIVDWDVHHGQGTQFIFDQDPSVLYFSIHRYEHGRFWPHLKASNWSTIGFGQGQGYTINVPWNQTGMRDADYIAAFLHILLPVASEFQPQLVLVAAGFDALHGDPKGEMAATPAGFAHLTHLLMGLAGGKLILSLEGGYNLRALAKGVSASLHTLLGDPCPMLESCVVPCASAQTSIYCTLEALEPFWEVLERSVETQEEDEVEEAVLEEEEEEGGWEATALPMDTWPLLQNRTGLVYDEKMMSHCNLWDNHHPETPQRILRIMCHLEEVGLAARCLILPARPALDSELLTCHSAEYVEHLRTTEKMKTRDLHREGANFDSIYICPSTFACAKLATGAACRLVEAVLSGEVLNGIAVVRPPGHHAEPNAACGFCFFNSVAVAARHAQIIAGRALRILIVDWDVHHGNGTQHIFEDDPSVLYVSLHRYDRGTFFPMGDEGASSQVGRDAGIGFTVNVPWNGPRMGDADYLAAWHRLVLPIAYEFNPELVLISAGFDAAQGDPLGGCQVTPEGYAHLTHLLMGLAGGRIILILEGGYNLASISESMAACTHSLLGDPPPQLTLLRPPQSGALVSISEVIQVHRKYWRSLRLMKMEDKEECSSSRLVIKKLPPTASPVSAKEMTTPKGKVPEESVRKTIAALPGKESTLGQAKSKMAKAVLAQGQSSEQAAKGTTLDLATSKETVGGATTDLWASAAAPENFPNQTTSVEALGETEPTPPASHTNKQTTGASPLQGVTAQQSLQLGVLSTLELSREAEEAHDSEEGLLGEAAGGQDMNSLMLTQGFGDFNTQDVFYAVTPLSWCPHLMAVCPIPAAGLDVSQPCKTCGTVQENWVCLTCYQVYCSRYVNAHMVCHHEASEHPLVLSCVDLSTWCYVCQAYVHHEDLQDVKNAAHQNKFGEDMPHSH

[2] = amide bond, 12-membered ring, HATU/DIEA, DMF, 25.0 °C
[3] = Table 3, method of Example 11, read-out: IC50(μM) HDAC1
[4] = Table 3, method of Example 11, read-out: IC50(μM) HDAC4
[5] = Table 3, method of Example 11, 50% of the maximum activity observed in TSA
[6] = Table 1, 37° C., 30 minutes, read-out: IC50 (μM) HDAC1
[7] = Table 1, 37° C., 30 minutes, read-out: IC50 (μM) HDAC4
[8] = Table 1, 37° C., 30 minutes, read-out: IC50 (μM) HDAC6
[9] = Table 1, MFLL-9 cells, 18 hours, concentration corresponding to 50% of the maximum active value for TSA

T2 sequence (P56524 whole entry): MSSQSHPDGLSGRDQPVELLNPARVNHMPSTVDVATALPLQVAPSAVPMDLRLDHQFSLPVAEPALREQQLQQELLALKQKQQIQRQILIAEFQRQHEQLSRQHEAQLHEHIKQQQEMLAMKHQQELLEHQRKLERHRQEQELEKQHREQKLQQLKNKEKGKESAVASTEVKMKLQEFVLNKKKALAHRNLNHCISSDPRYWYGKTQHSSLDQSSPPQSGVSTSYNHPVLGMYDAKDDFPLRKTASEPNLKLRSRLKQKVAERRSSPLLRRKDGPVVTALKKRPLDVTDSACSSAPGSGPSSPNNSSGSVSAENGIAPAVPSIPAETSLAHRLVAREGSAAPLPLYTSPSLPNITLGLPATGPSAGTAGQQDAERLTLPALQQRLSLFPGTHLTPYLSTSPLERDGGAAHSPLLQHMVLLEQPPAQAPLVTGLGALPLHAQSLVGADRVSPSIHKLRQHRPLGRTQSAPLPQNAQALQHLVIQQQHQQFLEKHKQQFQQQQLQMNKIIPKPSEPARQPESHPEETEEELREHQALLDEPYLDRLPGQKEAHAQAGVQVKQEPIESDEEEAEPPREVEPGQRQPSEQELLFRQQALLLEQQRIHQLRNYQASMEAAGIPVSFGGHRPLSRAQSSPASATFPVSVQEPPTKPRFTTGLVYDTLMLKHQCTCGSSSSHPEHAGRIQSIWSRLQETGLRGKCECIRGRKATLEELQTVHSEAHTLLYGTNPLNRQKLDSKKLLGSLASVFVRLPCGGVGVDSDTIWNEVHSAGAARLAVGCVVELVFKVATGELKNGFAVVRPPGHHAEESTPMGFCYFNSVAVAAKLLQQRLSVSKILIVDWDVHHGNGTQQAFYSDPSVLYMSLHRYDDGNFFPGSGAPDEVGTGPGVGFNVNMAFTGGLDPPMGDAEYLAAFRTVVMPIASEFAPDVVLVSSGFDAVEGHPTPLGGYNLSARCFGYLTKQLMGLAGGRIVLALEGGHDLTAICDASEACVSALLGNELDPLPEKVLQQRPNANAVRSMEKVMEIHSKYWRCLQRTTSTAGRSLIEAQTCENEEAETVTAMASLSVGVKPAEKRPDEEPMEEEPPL
T1 sequence (Q13547 whole entry): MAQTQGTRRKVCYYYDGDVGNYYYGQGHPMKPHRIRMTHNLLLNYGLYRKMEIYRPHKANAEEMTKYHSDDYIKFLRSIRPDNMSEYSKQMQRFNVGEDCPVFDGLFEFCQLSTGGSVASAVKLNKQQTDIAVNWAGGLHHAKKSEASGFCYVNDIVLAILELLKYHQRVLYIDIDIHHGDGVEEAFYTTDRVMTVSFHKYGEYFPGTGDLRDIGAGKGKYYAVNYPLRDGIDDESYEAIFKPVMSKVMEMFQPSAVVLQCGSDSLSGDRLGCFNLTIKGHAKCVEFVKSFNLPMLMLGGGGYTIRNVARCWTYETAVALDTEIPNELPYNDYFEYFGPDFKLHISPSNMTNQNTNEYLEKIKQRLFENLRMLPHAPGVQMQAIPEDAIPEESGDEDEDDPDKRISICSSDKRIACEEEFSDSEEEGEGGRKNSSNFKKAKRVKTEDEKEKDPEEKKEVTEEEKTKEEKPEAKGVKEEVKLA

IC50 (human HDAC1; [3]): 1.22 µM
IC50 (human HDAC4; [4]): 0.23 µM
EC50 [1, 5]: 55.1 µM
SMILES: CC[C@H](C)[C@@H]1NC(=O)[C@@H](Cc2ccc(OC)cc2)NC(=O)[C@H](CCCCCC(=O)Nc2ccccc2O)NC(=O)[C@H]2CCCN2C1=O [OAPOH, cyclo(L-Asu(OAPOH)-D-Tyr(Me)-L-Ile-D-Pro)] (cyclo([Asu](X1)[dY](Me)I[dP]))

IC50 (human HDAC1; [6]): 23.9 µM
IC50 (human HDAC4; [7]): 17.5 µM
IC50 (mouse HDAC6; [8]): 8.19 µM
SMILES: CC[C@H](C)[C@@H]1NC(=O)[C@@H](Cc2ccc(OC)cc2)NC(=O)[C@H](CCCCN(O)C=O)NC(=O)[C@@H]2CCCCN2C1=O [N(OH)COH Cyclo(X-y(Me)-I-Pip), n = 4]

SMILES: CC[C@H](C)[C@@H]1NC(=O)[C@@H](Cc2ccc(OC)cc2)NC(=O)[C@H](CCCCCN(C=O)OCc2ccccc2)NC(=O)[C@@H]2CCCN2C1=O [cyclo(-L-Hly(For, OBzl)-D-Tyr(Me)-L-Ile-L-Pro-)]
ring closure, isolated yield ([2]; from H-dTyr(Me)-Ile-Pro-Hly(For,OBzl)-OH, 0.68 mM): 44%

SMILES: CC[C@H](C)[C@@H]1NC(=O)[C@@H](Cc2ccc(OC)cc2)NC(=O)[C@H](CCCCN(C=O)OCc2ccccc2)NC(=O)[C@H]2CCCCN2C1=O [cyclo(-L-Lys(For, OBzl)-D-Tyr(Me)-L-Ile-D-Pip-)]
ring closure, isolated yield ([2]; from H-dTyr(Me)-Ile-dPip-Lys(For,OBzl)-OH?, 0.4 mM): 25%

SMILES: CC[C@H](C)[C@@H]1NC(=O)[C@@H](Cc2ccc(OC)cc2)NC(=O)[C@H](CCCCCN(C=O)OCc2ccccc2)NC(=O)[C@@H]2CCCCN2C1=O [cyclo(-L-Hly(For, OBzl)-D-Tyr(Me)-L-Ile-L-Pip-)]
ring closure, isolated yield ([2]; from H-dTyr(Me)-Ile-Pip-Hly(For,OBzl)-OH?, 0.39 mM): 28%

IC50 (human HDAC1; [6]): 33.9 µM
IC50 (human HDAC4; [7]): 25.2 µM
IC50 (mouse HDAC6; [8]): 14.3 µM
SMILES: CC[C@H](C)[C@@H]1NC(=O)[C@@H](Cc2ccc(OC)cc2)NC(=O)[C@H](CCCCN(O)C=O)NC(=O)[C@H]2CCCCN2C1=O [N(OH)COH Cyclo(X-y(Me)-I-pip), n = 4]

SMILES: CC[C@H](C)[C@@H]1NC(=O)[C@@H](Cc2ccc(OC)cc2)NC(=O)[C@H](CCCCCC(=O)Nc2ccccc2N)NC(=O)[C@H]2CCCN2C1=O [OPD, cyclo(L-Asu(OPD)-D-Tyr(Me)-L-Ile-D-Pro)] (cyclo([Asu](NH(2-NH2-phenyl))[dY](Me)I[dP]))
IC50 (human HDAC1; [3]): 4.04 µM
IC50 (human HDAC4; [4]): 15.7 µM
IC50 (mouse HDAC6; Table 3, method of Example 11, read-out: IC50(μM) HDAC6): 321 µM
EC50 [1, 5]: 30.9 µM

EC50 [1, 9]: > 100 µM
SMILES: CC[C@H](C)[C@@H]1NC(=O)[C@@H](Cc2ccc(OC)cc2)NC(=O)[C@H](CCCCCSC)NC(=O)[C@H]2CCCN2C1=O [SMe]

SMILES: CC[C@H](C)[C@@H]1NC(=O)[C@@H](Cc2ccc(OC)cc2)NC(=O)[C@H](CCCCCC(=O)Nc2ccccc2S)NC(=O)[C@H]2CCCN2C1=O [OATP, cyclo(L-Asu(OATP)-D-Tyr(Me)-L-Ile-D-Pro)] (cyclo([Asu](X3)[dY](Me)I[dP]))
IC50 (human HDAC1): 2.03 µM
IC50 (human HDAC4): 0.23 µM
IC50 (mouse HDAC6): 408 µM
EC50 [1, 5]: > 100 µM

IC50 (human HDAC1; [6]): 13.5 µM
IC50 (human HDAC4; [7]): 18.9 µM
IC50 (mouse HDAC6; [8]): 11.2 µM
SMILES: CC[C@H](C)[C@@H]1NC(=O)[C@@H](Cc2ccc(OC)cc2)NC(=O)[C@H](CCCCCCN(O)C=O)NC(=O)[C@@H]2CCCCN2C1=O [N(OH)COH Cyclo(X-y(Me)-I-Pip), n = 6]

IC50 (human HDAC1; [6]): 0.12 µM
IC50 (human HDAC4; [7]): 0.07 µM
IC50 (mouse HDAC6; [8]): > 500 µM
EC50 [1, 9]: 3.95 µM
SMILES: CC[C@H](C)[C@@H]1NC(=O)[C@@H](Cc2ccc(OC)cc2)NC(=O)[C@H](CCCCCC(=O)OC)NC(=O)[C@H]2CCCN2C1=O [COOMe, cyclo(-L-Asu(OMe)-D-Tyr(Me)-L-Ile-D-Pro-)] (cyclo([Asu](OMe)[dY](Me)I[dP]))
